Data as given in US20230391796A1, “GLYCOSIDASE INHIBITORS AND USES THEREOF” (UNIVERSIDAD DE SEVILLA (US) -UNIVERSITY OF SEVILLE (US), priority 2020, published 2023).
Counter-ions that a name gives are not always drawn.

What was measured:
Type in all cases: biochemical
[1] = target: T1, hOGA (Homo sapiens, UniProt O60502); assay: Inhibition assay against hOGA, resorufin N-acetyl-β-D-glucosaminide fluorescence; details: 0.2 nM hOGA, 25 μM substrate, pH 7.1; Morrison Ki
T1 sequence (O60502 1-916): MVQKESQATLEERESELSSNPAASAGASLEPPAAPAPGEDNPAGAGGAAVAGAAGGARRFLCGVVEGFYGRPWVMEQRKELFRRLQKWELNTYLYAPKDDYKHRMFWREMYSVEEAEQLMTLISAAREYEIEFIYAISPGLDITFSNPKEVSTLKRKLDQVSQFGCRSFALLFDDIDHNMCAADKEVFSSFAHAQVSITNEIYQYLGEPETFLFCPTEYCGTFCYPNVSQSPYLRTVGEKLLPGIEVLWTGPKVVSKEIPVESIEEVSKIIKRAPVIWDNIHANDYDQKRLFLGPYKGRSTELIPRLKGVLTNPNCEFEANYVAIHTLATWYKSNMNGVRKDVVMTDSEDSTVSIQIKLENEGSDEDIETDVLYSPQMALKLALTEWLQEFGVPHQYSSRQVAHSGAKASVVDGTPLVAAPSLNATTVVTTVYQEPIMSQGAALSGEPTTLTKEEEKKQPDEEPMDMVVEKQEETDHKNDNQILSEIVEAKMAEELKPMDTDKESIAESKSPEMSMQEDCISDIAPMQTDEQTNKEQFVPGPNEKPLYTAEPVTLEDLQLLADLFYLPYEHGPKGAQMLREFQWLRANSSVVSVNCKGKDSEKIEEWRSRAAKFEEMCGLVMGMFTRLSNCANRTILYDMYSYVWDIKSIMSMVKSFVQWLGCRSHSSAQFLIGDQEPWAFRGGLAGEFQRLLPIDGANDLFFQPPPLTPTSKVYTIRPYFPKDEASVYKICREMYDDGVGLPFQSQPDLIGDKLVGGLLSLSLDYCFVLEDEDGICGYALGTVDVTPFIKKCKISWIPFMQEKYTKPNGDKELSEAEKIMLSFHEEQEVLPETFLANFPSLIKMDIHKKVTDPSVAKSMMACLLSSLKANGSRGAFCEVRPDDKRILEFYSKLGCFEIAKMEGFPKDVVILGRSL
Protocol: Inhibition Assays Against hOGA
Km=25 μM was measured with these conditions. Inhibition assays were run at 0.2 nM [hOGA] in the same buffer, in the presence or absence of various concentrations of inhibitors and at a fixed substrate concentration of 25 μM and 1% DMSO. First, inhibitor was serially diluted to the desired range of concentrations in 2% DMSO buffer. Next, 50 μL of inhibitor solutions at various concentrations in 2% DMSO Buffer was added to 50 μL of 0.8 nM enzyme and allowed to incubate at 25° C. for 5 minutes. 100 uL of 50 μM and 1% DMSO substrate was then added and reaction mixture was immediately mixed and aliquoted in 45 μL triplicates to a CORNING 384 well black plate. Fluorescence signal was measured continuously for 20 minutes at 37° C. in a BioTek Neo 2 Plate reader set at excitation and emission wavelengths of 572 and 610 nm, respectively. Max reaction rates for all inhibitor concentrations were calculated within Gen5 BioTek reader software. % Activity was subsequently calculated for each inhibitor concentration against the max reaction rate of uninhibited hOGA. GraphPad Prism 2016 was used to approximate the Morrison Ki values for each inhibitor.

[2] = target: β-N-acetylglucosaminidase (from bovine kidney); assay: Inhibition assay against commercial β-N-acetylglucosaminidase (bovine kidney), p-nitrophenyl N-acetyl-β-D-glucosaminide substrate; details: pH 5.5, 37° C.; average of three determinations ± s.e.m.; NI = no inhibition detected at 200 μM; read-out: Bovine kidney Hex
Protocol: (§1) Inhibition Assays Against Commercial β-N-acetylglucosaminidases
(§2) Inhibition constant (Ki) values were determined by spectrophotometrically measuring the residual hydrolytic activities of the glycosidases against p-nitrophenyl N-acetyl-β-D-glucosaminide. […] Each assay was performed in phosphate-citrate buffer and the reactions were initiated by addition of the enzyme to a solution of the substrate in the absence or presence of various inhibitor concentrations. The mixture was incubated for 10-30 min at 37° C. and the reaction was quenched by addition of 1 M Na2CO3. Reaction times were appropriate to obtain 10-20% conversion of the substrate in order to achieve linear rates. The absorbance of the resulting mixture was determined at 405 nm. Approximate values of Ki were determined using a fixed concentration of substrate (around the Km value for the different glycosidases) and various inhibitor concentrations. Full Ki determinations and enzyme inhibition mode were determined from the slope of Lineweaver-Burk plots and double reciprocal analysis using a Microsoft Office Excel 2007 program.

[3] = target: β-N-acetylglucosaminidase (from jack bean); assay: Inhibition assay against commercial β-N-acetylglucosaminidase (jack bean), p-nitrophenyl N-acetyl-β-D-glucosaminide substrate; details: pH 5.5, 37° C.; average of three determinations ± s.e.m.; NI = no inhibition detected at 200 μM; read-out: Jack beans Hex
Protocol: as §1, §2

[4] = target: β-N-acetylglucosaminidase (from human placenta); assay: Inhibition assay against commercial β-N-acetylglucosaminidase (human placenta), p-nitrophenyl N-acetyl-β-D-glucosaminide substrate; details: pH 5.5, 37° C.; average of three determinations ± s.e.m.; read-out: Human placenta Hex
Protocol: as §1, §2

[5] = target: T2, Recombinant Human Hexosaminidase A (HexA) (Homo sapiens, UniProt P06865); assay: Inhibition assay against rhHexA, 4-methylumbelliferone-N-acetyl-β-D-glucosaminide fluorescence; details: IC50 for lysosomal hHexA; NI = no inhibition detected at 200 μM
T2 construct: purchased R&D Systems 6237-GH-020
T2 sequence (P06865 89-529): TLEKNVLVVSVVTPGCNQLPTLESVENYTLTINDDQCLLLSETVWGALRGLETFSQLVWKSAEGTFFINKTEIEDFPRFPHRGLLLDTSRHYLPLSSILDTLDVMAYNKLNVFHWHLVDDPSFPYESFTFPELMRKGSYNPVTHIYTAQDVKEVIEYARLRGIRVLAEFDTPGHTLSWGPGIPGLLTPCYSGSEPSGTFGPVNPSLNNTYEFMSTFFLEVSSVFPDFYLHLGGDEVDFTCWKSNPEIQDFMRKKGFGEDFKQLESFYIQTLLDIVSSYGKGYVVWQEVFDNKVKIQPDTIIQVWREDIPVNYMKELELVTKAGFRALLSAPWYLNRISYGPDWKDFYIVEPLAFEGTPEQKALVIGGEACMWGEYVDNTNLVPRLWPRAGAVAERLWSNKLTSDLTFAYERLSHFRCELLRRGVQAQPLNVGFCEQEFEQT
Protocol: Inhibition Assays Against rhHexA
Human Hexosaminidase A (HexA) enzyme, purchased from R&D Systems (cat# 6237-GH-020), were determined by measuring the fluorescent signal corresponding to the rate of hydrolytic activity against the commercially available artificial substrate, 4-Methylumbelliferone-N-acetyl-β-D-glucosaminide. HexA activity assays were performed in a buffer of 100 mM sodium citrate, 250 NaCl, pH 4.5 and 1.0 nM [HexA], then stopped after 20 minutes with a solution of 1.0 M Tris, pH 9.5 to enhance fluorescent signal. Preliminary experiments have shown that reaction rates are linear for 20 minutes after substrate addition, and that 1.0 M Tris at pH 9.5 is sufficient for stopping activity, as signal is stable after stopping. Inhibition assays were run in the presence or absence of various concentrations of inhibitors and at a fixed substrate concentration of 100 μM and 1% DMSO. First, inhibitor was serially diluted to the desired range of concentrations in 2% DMSO buffer. Next, 25 μL, of inhibitor solutions at various concentrations in 2% DMSO Buffer was added to 25 μL, of 4.0 nM enzyme and allowed to incubate at 25° C. for 5 minutes. 50 μL of 200 μM and 1% DMSO substrate was then added and allowed to react for 20 minutes. 100 μL of stop solution was added to reaction mixture, and immediately mixed and aliquoted in 45 μL triplicates to a CORNING 384 well black plate. Fluorescence signal was measured in a BioTek Neo 2 Plate reader set at excitation and emission wavelengths of 355 and 450 nm, respectively. % Activity was subsequently calculated for each inhibitor concentration against the fluorescence signal of uninhibited HexA. […]

A Ki [1] of 0.292 nM, a Ki [2] of 890 ± 800 nM and a Ki [3] of 2400 ± 200 nM were found for `CC(=O)N[C@H]1CN2/C(=N/Cc3cccc4ccccc34)SC[C@@H]2[C@@H](O)[C@@H]1O` [Compound 5, 2-Acetamido-5-N,6-S-(N′-1-naphthylmethyliminomethylidene)-1,2-dideoxy-6-thionojirimycin Hydrochloride] in this work.

A Ki [1] of 53.8 nM, a Ki [4] of 280 ± 20 nM and a Ki [2] of 1500 ± 200 nM were found for `CC(=O)N[C@H]1CN2/C(=N/Cc3ccc(F)cc3)SC[C@@H]2[C@@H](O)[C@@H]1O` [Compound 6, 2-N-Acetyl-5-N,6-S-(N′-p-fluorobenzyliminomethylidene)-1,2-dideoxy-6-thionojirimycin Hydrochloride] in this work. The Ki [3] was 3200 ± 300 nM.

A Ki [1] of 27.8 nM, a Ki [4] of 730 ± 40 nM and a Ki [2] of 1200 ± 100 nM were found for `COc1ccc(C/N=C2\SC[C@@H]3[C@@H](O)[C@H](O)[C@@H](NC(C)=O)CN23)cc1` [Compound 7, 2-N-Acetyl-5-N,6-S-(N′-p-methoxybenzyliminomethylidene)-1,2-dideoxy-6-thionojirimycin Hydrochloride] in this work. The Ki [3] was 2200 ± 100 nM.

A Ki [1] of 0.438 nM, a Ki [2] of 720 ± 50 nM and a Ki [3] of 3400 ± 800 nM were found for `CC(=O)N[C@H]1CN2/C(=N/Cc3ccc(CN=[N+]=[N-])cc3)SC[C@@H]2[C@@H](O)[C@@H]1O` [Compound 11, 2-Acetamido-5-N,6-S-(N′-p-azidomethylbenzyliminomethylidene)-1,2-dideoxy-6-thionojirimycin Hydrochloride] in this work.

A Ki [1] of 399 nM, a Ki [4] of 580 ± 40 nM and a Ki [2] of 700 ± 50 nM were found for `CC(=O)N[C@H]1CN2/C(=N/c3ccccc3)SC[C@@H]2[C@@H](O)[C@@H]1O` [Compound 3, 2-Acetamido-1,2-dideoxy-5-N,6-S-(N′-phenyliminomethylidene)-6-thionojirimycin Hydrochloride] in this work. For the same compound, the IC50 [5] was 410 nM and the Ki [3] was 2800 ± 200 nM.

A Ki [1] of 0.918 nM, a Ki [2] of 1420 ± 120 nM and a Ki [3] of 2450 ± 320 nM were found for `CC(=O)N[C@H]1CN2/C(=N/CCc3ccccc3)SC[C@@H]2[C@@H](O)[C@@H]1O` [Compound 12, 2-Acetamido-5-N,6-S-(N′-2-phenylethyliminomethylidene)-1,2-dideoxy-6-thionojirimycin Hydrochloride] in this work.

A Ki [1] of 24.1 nM, a Ki [4] of 240 ± 20 nM and a Ki [2] of 570 ± 40 nM were found for `CCCCN=C1SCC2C(O)C(O)C(NC(C)=O)CN12` (stereo not drawn) [Compound 1, 2-Acetamido-5-N,6-S-(N′-butyliminomethylidene)-1,2-dideoxy-6-thionojirimycin Hydrochloride] in this work. It also gave an IC50 [5] of 990 nM and a Ki [3] of 850 ± 60 nM.

A Ki [1] of 47.7 nM, a Ki [4] of 400 ± 30 nM and a Ki [2] of 430 ± 40 nM were found for `CC(=O)N[C@H]1CN2/C(=N/Cc3ccc(C(F)(F)F)cc3)SC[C@@H]2[C@@H](O)[C@@H]1O` [Compound 8, 2-Acetamido-5-N,6-S-(N′-p-trifluoromethylbenzyliminomethylidene)-1,2-dideoxy-6-thionojirimycin hydrochloride] in this work. The Ki [3] was 1500 ± 100 nM.

A Ki [1] of 0.223 nM, a Ki [2] of 830 ± 60 nM and a Ki [3] of 3130 ± 800 nM were found for `CC(=O)N[C@H]1CN2/C(=N/Cc3cccc(CN=[N+]=[N-])c3)SC[C@@H]2[C@@H](O)[C@@H]1O` [Compound 10, 2-Acetamido-5-N,6-S-(N′-m-azidomethylbenzyliminomethylidene)-1,2-dideoxy-6-thionojirimycin Hydrochloride] in this work.

A Ki [1] of 20.2 nM, a Ki [4] of 240 ± 20 nM and a Ki [2] of 190 ± 20 nM were found for `CCCCCCCCN=C1SCC2C(O)C(O)C(NC(C)=O)CN12` (stereo not drawn) [Compound 2, 2-Acetamido-1,2-dideoxy-5-N,6-S-(N′-octyliminomethylidene)-6-thionojirimycin Hydrochloride] in this work. It also gave an IC50 [5] of 580 nM and a Ki [3] of 1300 ± 100 nM.

A Ki [1] of 0.278 nM, a Ki [2] of 910 ± 90 nM and a Ki [3] of 3070 ± 300 nM were found for `CC(=O)N[C@H]1CN2/C(=N/Cc3ccccc3CN=[N+]=[N-])SC[C@@H]2[C@@H](O)[C@@H]1O` [Compound 9, 2-Acetamido-5-N,6-S-(N′-o-azidomethylbenzyliminomethylidene)-1,2-dideoxy-6-thionojirimycin Hydrochloride] in this work.
